# “Also recorded” adds a separate entry of the source.
# Columns and labels:
# [1] = tested on: Fuchs' endothelial corneal dystrophy patient-derived immortalized corneal endothelial cells; test: Cell damage inhibitory effect on iFECD stimulated with TGF-β2 (phase contrast microscope); format: cell-based, human
# Experimental: The medium was removed from the culture dish in which Fuchs' endothelial corneal dystrophy patient-derived immortalized corneal endothelial cells (hereinafter, referred to as disease model cells) were being cultured, and the cells were supplemented with 1×PBS (−) that was preheated to 37° C., and were washed. This operation was repeated twice. The cells were supplemented with 1×PBS (−) again and incubated for 5 minutes at 37° C. (5% CO2). After the PBS (−) was removed, the cells were supplemented with 0.05% Trypsin-EDTA (nacalai tesque, 32778-34) and incubated for 5 minutes at 37° C. (5% CO2). The cells were then suspended in a medium, and collected by centrifugation at 1500 rpm for 3 minutes. DMEM (nacalai tesque, 08456-36)+10% FBS (Biowest, S1820-500)+1% P/S (nacalai tesque, 26252-94) was used as the medium. The disease model cells were seeded in a 6-well plate at a rate of 1.5×10^5 cells per well and cultured at 37° C. (5% CO2) for 48 hours. DMEM+10% FBS+1% P/S was used as the medium.
# After 48 hours, the medium was removed, and AKP-001, SB203580 (Cayman, 13067), PH-797804 (Selleck Chemicals, S2726) and VX-702 (Selleck Chemicals, 56005) were added to DMEM+2% FBS+1% P/S so that the final concentration was 0.01, 0.03, 0.1, 0.3, 1, 3, 10 and 30 μM, followed by culturing as 24-hour pretreatment. After 24 hours, the medium was removed, and AKP-001, 5B203580 (Cayman, 13067), PH-797804 (Selleck Chemicals, S2726), or VX-702 (Selleck Chemicals, S6005), together with 100 ng/ml Recombinant Human TGF-β2 (R&D systems, RND302-B2-002), were added to DMEM+2% FBS+1% P/S so that the final concentration was 0.01 μM, 0.03 μM, 0.1 μM, 0.3 μM, 1 μM, 3 μM, 10 μM, and 30 μM, followed by culturing for 24 hours. After 24 hours, cell damage was evaluated by observation with a phase contrast microscope. As a control, immortalized corneal endothelial cells that were not stimulated with TGF-β were used.
# [2] = tested on: human corneal endothelial cells; test: Cell Titer-Glo Luminescent Cell Viability Assay in the presence of AKP-001; format: cell-based; conditions: 24 hours
# Experimental: Human corneal endothelial cells were peeled off with Descemet's membranes from research-purpose donor corneas, followed by culturing. For the medium, the following was used: OptiMEM-I (invitrogen, 31985-088)+8% FBS (Thermo, SH30084.03)+5 ng/mL epidermal growth factor (invitrogen, PHG0311)+20 μg/mL L-ascorbic acid 2-sesquimagnesium phosphate hydrate (SIGMA, A8960)+200 mg/L calcium chloride dihydrate (SIGMA, C7902)+0.08% chondroitin sulfate (Wako Pure Chemical Industries, Ltd., 032-14613)+50 μg/mL gentamicin (invitrogen, 15710-064)+1 μM SB431542 (WAKO, 192-16541)+10 μM SB203580 (Cayman, 13067). Culture dishes pre-coated with laminin-511E8 (Nippi, 381-07363) were used.
# Cultured human corneal endothelial cells were seeded at a rate of 1×10^4 per well in a 96-well plate coated with laminin-511E8, and the cells were cultured until reaching confluence at 37° C. (5% CO2). For the medium, used was OptiMEM-I (invitrogen, 31985-088)+8% FBS (Thermo, SH30084.03)+5 ng/mL epidermal growth factor (invitrogen, PHG0311)+20 μg/mL L-ascorbic acid 2-sesquimagnesium phosphate hydrate (SIGMA, A8960)+200 mg/L calcium chloride dihydrate (SIGMA, C7902)+0.08% chondroitin sulfate (Wako Pure Chemical Industries, Ltd., 032-14613)+50 μg/mL gentamicin (invitrogen, 15710-064)+1 μM SB431542 (WAKO, 192-16541)+10 μM SB203580 (Cayman, 13067).
# Upon reaching confluence, the culturing was further conducted for one more week with OptiMEM-I (invitrogen, 31985-088)+8% FBS (Thermo, SH30084.03)+20 μg/mL+200 mg/L calcium chloride dihydrate (SIGMA, C7902)+0.08% chondroitin sulfate (Wako Pure Chemical Industries, Ltd., 032-14613)+50 μg/mL gentamicin (invitrogen, 15710-064). […]
# The medium was discarded to 50 μl per well, and Cell Titer-Glo Luminescent Cell Viability Assay solution (Promega, G7572) was added to the 50 μl/well to reach 1:1 with the medium. […] After standing, 50 μl was transferred to an Assay plate (Corning, 3912, Assay plate well, white polystyrene), and the […] was measured using GloMax-Multi Detection System (Promega, E7051).
smiles,measurement,setting,value
"O=C(Cc1c(F)cccc1Cl)Nc1onc(-c2ccc(F)cc2)c1-c1ccncn1 [AKP-001, 5-[(2-chloro-6-fluorophenyl)acetylamino]-3-(4-fluorophenyl)-4-(4-pyrimidinyl)isoxazole]",damage inhibitory effect for the corneal endothelial cells,[1]; 0.01 μM,observed
same,disorder in the corneal endothelial cells,"[1]; 0.1 μM, 0.3 μM, 1 μM and 3 μM, iFECD, pretreatment, TGF-β2 stimulation",effectively suppressed
same,cell damage inhibitory effect for the corneal endothelial cells,[1]; at sub-μM,exerted an inhibitory effect; also recorded: able to suppress cell damage
same,cell damage (cell viability),"[2]; 0.1 μM, 0.3 μM, 1 μM, 3 μM or 10 μM",no cell damage was observed
same,number of the cells (cell viability),[2]; 30 μM and 100 μM,significantly reduced the number of the cells
same,concentrations at which less toxic to the cells,[2],less than 30 μM

# Reference: patent publication US11576914B2, “Drug for treating or preventing disorder caused by TGF-β signaling, and application thereof” (THE DOSHISHA, priority 2017, dated 2023)
